Measured values reported in paper PMC12077149, “Evolution of PqsE as a Pseudomonas aeruginosa-specific regulator of LuxR-type receptors: insights from Pseudomonas and Burkholderia” (mBio, 2025).

Tests used:
[1] = target: T1, CepR (Burkholderia cepacia, UniProt Q9AM51); experiment: protein solubilization in E. coli, SDS-PAGE; format: cell-based; conditions: AHL added at induction
T1 construct: gene CO711_26440; untagged full-length, in E. coli (arabinose-inducible with pcepI-luxCDABE reporter; pET-DUET for solubility)

[2] = target: T1, CepR; experiment: E. coli pcepI-lux reporter; protein solubilization; format: cell-based; conditions: 10 µM AHL in reporter; agonist
[3] = system: T2, HhqE^Bc; experiment: fluorescence hydrolysis assay (ex […] / em […] nm); format: biochemical, Burkholderia cepacia; conditions: 50 mM Tricine, 0.01% Triton X-100; 2 µM enzyme; substrate up to 8 µM
T2 construct: 6xHis-tagged, E. coli BL21(DE3), Ni-NTA and SEC; monomer (~32 kDa by SEC)

[4] = system: T2, HhqE^Bc; experiment: thiol release with Ellman's reagent, A412; format: biochemical, Burkholderia cepacia; conditions: 0.1 M Tris-HCl pH 8.0, 2 mM DTNB; 2 µM enzyme; substrate up to 1 mM
Source text: thiol release with Ellman's reagent, A412 on HhqE^Bc

T1 sequence (Q9AM51 entry or part of it): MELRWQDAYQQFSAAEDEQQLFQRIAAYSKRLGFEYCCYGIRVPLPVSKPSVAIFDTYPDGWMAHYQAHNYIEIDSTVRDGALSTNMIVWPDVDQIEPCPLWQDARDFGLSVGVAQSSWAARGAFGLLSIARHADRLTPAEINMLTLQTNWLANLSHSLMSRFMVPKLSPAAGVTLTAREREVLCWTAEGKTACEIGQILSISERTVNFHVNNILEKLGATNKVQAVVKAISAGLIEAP

| SMILES | protein solubilization in E. coli, SDS-PAGE [1] | E. coli pcepI-lux reporter; protein solubilization [2] | further results |
| --- | --- | --- | --- |
| CCCCCCCCCC(=O)CC(=O)N[C@H]1CCOC1=O [3OC12HSL] | C6HSL, C8HSL, C10HSL, and 3OC12HSL—were sufficient for the solubilization of CepR | – | – |
| CCCCCCCCCC(=O)N[C@H]1CCOC1=O [C10HSL] | – | CepR responded to its cognate ligand C8HSL and, to a lesser extent, C10HSL | – |
| CCCC(=O)Oc1ccc2c(C)cc(=O)oc2c1 [MU-butyrate] | – | – | Km [3]: 0.00016 mM |
| CCCCCC(=O)N[C@H]1CCOC1=O [C6HSL] | C6HSL, C8HSL, C10HSL, and 3OC12HSL—were sufficient for the solubilization of CepR | – | – |
| CCCCCCCC(=O)N[C@H]1CCOC1=O [C8HSL] | – | CepR responded to its cognate ligand C8HSL and, to a lesser extent, C10HSL | – |
| CC(=O)CC(=O)SCCNC(=O)CCNC(=O)[C@H](O)C(C)(C)COP(=O)(O)OP(=O)(O)OC[C@H]1O[C@@H](n2cnc3c(N)ncnc32)[C@H](O)[C@@H]1OP(=O)(O)O [Acetoacetyl-CoA] | – | – | Km [4]: 7.5 ± 0.4 mM |
